# Results from patent publication US20070048325A1, “Combination therapies for inhibiting integrin-extracellular matrix interactions” (priority 2005, published 2007).
# Where no end group is shown, it is not given here.
# How the values were obtained:
# [1] = tested on: denatured collagen type-IV; assay: ^99Tc-labeled CLK-peptide binding, gamma counter; conditions: for inhibition of ^99Tc-CLK-peptide binding to denatured collagen type-IV: collagen coated at 10 μg/ml
# Procedure: FIG. 28 Inhibition of Binding of ^99Tc-Labeled CLK-Peptide to Denatured Collagen Type-IV by mAb HUI77. Denatured collagen type-IV (10 μg/ml) was coated on microtiter wells and binding of ^99Tc-labeled CLK-peptide in the presence or absence of unlabeled CLK-peptide or mAb HUI77 was measured. […] These findings provide further evidence that the CLK-peptide binds to a similar, if not identical, epitope recognized by the mAb HUI77.
# In addition, denatured collagen type-IV (10 μg/ml) was coated on microtiter wells and binding of ^99Tc-labeled CLK-Peptide in the presence or absence of unlabeled CLK-peptide or mAb HUI77 was measured using a gamma counter. […] These findings provide further evidence that the CLK-peptide binds to a similar if not identical epitope recognized by Mab HUI77.
# [2] = tested on: denatured collagen; conditions: cited from earlier work
# [3] = tested on: denatured collagen type-IV; assay: Solid phase ELISA of HRP-labeled CLK-peptide binding; conditions: collagen coated at 10 μg/ml; ELISA 490 nm
# Procedure: FIG. 27 Inhibition of Binding of Labeled CLK-Peptide to Denatured Collagen Type-IV by mAb HUI77. To examine the binding specificity of the synthetic CLK-peptide, the peptide was labeled and solid phase ELISAs were performed.
# To examine the binding specificity of CLK-Peptide, the peptide was labeled and solid phase ELISAs were performed. Denatured collagen type-IV (10 μg/ml) was coated on microtiter wells and binding of either HRP-labeled CLK-Peptide or mAbs (mAbs HU177 or HUIV26) was measured by ELISA at a wavelength of 490 nm.
# [4] = tested on: denatured collagen type-IV; conditions: substantially greater defined as at least 1.5-fold; cited from earlier work
# [5] = tested on: M21 cells; assay: M21 cell adhesion to native collagen type-IV; type: cell-based, human; conditions: CLK-peptide 100 μg/ml; mAb HUIV26 100 μg/ml; data not shown
# Procedure: FIG. 25 Effect of mAb HUIV26 in Combination with CLK-Peptide on Adhesion of M21 Cells to Denatured Collagen Type IV. Microtiter wells were coated with either native or denatured collagen type-IV. M21 cells were allowed to bind to the coated substrates in the presence of CLK-peptide, mAb HUIV26, or both.
# The effects of CLK-peptide, mAb HUIV26, and the combination of both on tumor cell adhesion were examined in vitro. Non-tissue culture treated 48-well microtiter plates were coated overnight at 4° C. with either native or denatured collagen type-IV (5 μg/ml). The plates were then blocked with 1% BSA in PBS for 1 hour at 37° C. Human melanoma (M21) cells at 10^5 cells/well in adhesion buffer were allowed to attach to the coated wells in the presence of either CLK-peptide (100 μg/ml), or mAb HUIV26 (100 μg/ml, […]), or both together (CLK-peptide 25 μg/ml, mAb HUIV26 100 μg/ml). The cells were washed 2× with PBS, stained with crystal violet and destained with 10% acetic acid. Cell adhesion was quantified by measuring the O.D. of eluted dye at 600 nm. Data bars represent the mean O.D.±standard deviation from triplicate wells.
# [6] = tested on: denatured collagen type-IV; assay: Competition ELISA of CLK-peptide and mAb HUIV26; type: binding
# Procedure: FIG. 26 Binding of CLK-Peptide and Mab HUIV26 to Denatured Collagen Type IV. To examine the epitope bound by CLK and HUIV26, competition ELISAs were carried out. Microtiter wells were coated with denatured collagen type-IV (10 μg/ml), and mAb HUIV26 was allowed to bind the denatured collagen in the presence or absence of CLK-peptide.
# To characterize the epitope bound by CLK and HUIV26, competition ELISAs were carried out. Microtiter wells were coated with denatured collagen type-IV (1 μg/ml) overnight at 4° C., and the plates were blocked with 1% BSA for 1 hour at 37° C. Monoclonal Ab HUIV26 was added at 1 μg/ml and allowed to bind the denatured collagen in the presence or absence of 100 μg/ml of CLK-peptide for 2 hours at 37° C. Goat-anti-mouse antibody was added at 1:3000 and incubation was allowed for 1 hour at 37° C. A color solution, then a stopping solution of 4N sulfuric acid, were added and binding was quantified by measuring the O.D. 490 nm. […] Similar results were obtained over a wide range of peptide and antibody concentrations (1 to 100 μg/ml; data not shown).
# [7] = target: integrin αvβ3 on M21 human melanoma cells (human (on human melanoma M21 cells)) (UniProt P06756); assay: cell-based or functional assay
# UniProt P06756, sequence (P06756 31-1048, chain 1 of 2): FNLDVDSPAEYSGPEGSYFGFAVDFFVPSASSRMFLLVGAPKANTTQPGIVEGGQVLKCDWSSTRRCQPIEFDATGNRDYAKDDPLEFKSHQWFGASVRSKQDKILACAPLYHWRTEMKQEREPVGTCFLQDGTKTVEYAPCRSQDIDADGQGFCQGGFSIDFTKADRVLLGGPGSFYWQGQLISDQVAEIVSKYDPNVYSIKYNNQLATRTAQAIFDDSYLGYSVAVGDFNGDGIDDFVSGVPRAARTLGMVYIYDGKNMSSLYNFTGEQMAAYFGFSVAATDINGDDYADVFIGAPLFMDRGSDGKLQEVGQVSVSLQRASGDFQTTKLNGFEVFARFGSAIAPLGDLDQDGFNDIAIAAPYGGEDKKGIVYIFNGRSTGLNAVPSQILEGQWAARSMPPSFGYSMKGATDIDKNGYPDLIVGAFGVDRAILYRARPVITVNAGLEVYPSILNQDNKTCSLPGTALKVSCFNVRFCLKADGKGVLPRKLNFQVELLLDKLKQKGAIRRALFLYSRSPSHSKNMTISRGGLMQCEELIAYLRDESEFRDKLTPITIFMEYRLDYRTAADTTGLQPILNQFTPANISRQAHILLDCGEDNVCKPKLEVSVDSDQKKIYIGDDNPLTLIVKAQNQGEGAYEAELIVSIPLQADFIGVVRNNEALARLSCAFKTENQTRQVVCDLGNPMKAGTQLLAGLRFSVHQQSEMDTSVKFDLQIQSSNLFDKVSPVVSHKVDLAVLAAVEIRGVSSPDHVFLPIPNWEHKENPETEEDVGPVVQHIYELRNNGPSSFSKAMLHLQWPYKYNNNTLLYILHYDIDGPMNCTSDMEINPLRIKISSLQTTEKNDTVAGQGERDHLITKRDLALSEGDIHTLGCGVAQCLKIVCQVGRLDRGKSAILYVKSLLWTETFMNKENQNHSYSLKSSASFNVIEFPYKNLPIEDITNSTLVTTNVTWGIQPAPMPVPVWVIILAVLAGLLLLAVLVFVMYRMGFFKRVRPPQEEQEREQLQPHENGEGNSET
# UniProt P06756, sequence (P05106 27-788, chain 2 of 2, further chain): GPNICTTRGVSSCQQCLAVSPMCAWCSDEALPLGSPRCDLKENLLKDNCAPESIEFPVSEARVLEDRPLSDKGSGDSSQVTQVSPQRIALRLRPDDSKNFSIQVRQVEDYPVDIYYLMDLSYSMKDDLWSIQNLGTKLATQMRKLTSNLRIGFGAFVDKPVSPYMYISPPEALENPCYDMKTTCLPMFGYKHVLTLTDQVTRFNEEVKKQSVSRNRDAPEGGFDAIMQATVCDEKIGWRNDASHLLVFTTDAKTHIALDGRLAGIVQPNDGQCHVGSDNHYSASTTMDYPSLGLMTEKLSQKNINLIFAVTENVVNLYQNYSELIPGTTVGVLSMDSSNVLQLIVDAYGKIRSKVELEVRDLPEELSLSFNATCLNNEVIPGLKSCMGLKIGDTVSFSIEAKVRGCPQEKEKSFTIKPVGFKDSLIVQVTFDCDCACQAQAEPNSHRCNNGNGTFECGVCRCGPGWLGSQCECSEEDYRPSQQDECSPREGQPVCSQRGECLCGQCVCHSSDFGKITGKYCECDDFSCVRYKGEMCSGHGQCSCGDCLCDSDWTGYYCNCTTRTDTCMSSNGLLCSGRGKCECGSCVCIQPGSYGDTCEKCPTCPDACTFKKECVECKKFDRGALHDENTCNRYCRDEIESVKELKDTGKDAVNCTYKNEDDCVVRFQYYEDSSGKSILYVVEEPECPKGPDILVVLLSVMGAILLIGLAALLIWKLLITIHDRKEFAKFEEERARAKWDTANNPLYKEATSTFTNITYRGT
Molecule,inhibition of ^99Tc-CLK-peptide binding to denatured collagen type-IV [1],inhibition of HRP-labeled CLK-peptide binding to denatured collagen type-IV [3],affinity to the native form of the collagen compared to denatured collagen [2],binding affinity to denatured collagen type-IV compared to native collagen type-IV [4],effect on M21 cell adhesion to native collagen type-IV [5],other results
NH2-S-L-K-Q-N-G-G-N—F—S-L-C—COOH (H-SLKQNGGNFSLC-OH) [SLK-peptide],–,–,–,substantially greater,–,–
NH2-C-L-K-Q-N-G-G-N—F—S-L-G-COOH (H-CLKQNGGNFSLG-OH) [CLK-peptide],dose dependent inhibition,–,–,substantially greater,neither had any effect,"blocking of mAb HUIV26 binding to denatured collagen type-IV ([6]; HUIV26 1 μg/ml, CLK-peptide 100 μg/ml): did not block"
^99Tc-CLK-peptide: CLK-peptide labeled with 99Tc (CLKQNGGNFSLG; also: labeled with 99Tc),–,–,–,–,–,"binding of ^99Tc-CLK-peptide to denatured collagen type-IV ([1]; 10 μg/ml, 50 μl/well): specifically binds"
Mab LM609 (antibody),–,–,–,–,–,relative level of IGFBP-4 RNA (real time PCR) in M21 cells on denatured collagen type-IV [7]: 8 fold; relative level of TSP-1 (real time PCR) in M21 cells on plates coated with anti-integrin Mabs [7]: > 50%; relative level of TSP-1 RNA (real time PCR) in M21 cells on denatured collagen type-IV [7]: 8 fold

# Further lines, with some results ahead:
inhibition of ^99Tc-CLK-peptide binding to denatured collagen type-IV [1],inhibition of HRP-labeled CLK-peptide binding to denatured collagen type-IV [3],Molecule,affinity to the native form of the collagen compared to denatured collagen [2],binding affinity to denatured collagen type-IV compared to native collagen type-IV [4],effect on M21 cell adhesion to native collagen type-IV [5],other results
inhibited,specifically inhibited,mAb HUI77: mouse monoclonal antibody to denatured collagen; hybridoma PTA-6551; SEQ ID NO: 1 and 8,substantially reduced affinity,–,–,–
–,not,"mAb HUIV26: monoclonal antibody to denatured collagen; Hybridoma HUIV26 (PTA-6563); SEQ ID NO: 15 and 22 (antibody, listed as Mus musculus, V domains shown) VH: EVKLLESGGGLVQPGGSLKLSCAASGFDFSRYWMSWVRQAPGKGLEWIGEINPDSSTINYTPSLKDKFIISRDNAKNTLYLQMSKVRSEDTALYYCARPVDGYYDAMDYWGQGTSVTVSS VL: DIVMTQSPSLLSVSAGEKVTMSCKSSQSLLNSGNQKNYLAWYQQKPGQPPKLLIYGASTRESGVPDRFTGSGSGTDFTLIISSVQAEDLAVYYCQNDHSVPYTFGGGTKLEI",substantially reduced affinity,–,neither had any effect,"binding to denatured collagen type-IV ([6]; ELISA, HUIV26 1 μg/ml): readily bound; blocking of CLK-peptide binding to denatured collagen type-IV ([6]; FIG. 26B): did not block"
